Measured values as given in US20250051279A1, “TRYPTAMINE COMPOSITIONS AND METHODS” (priority 2022, published 2025).

How the values were obtained:
[1] = Dynamic vapor sorption (DVS) hygroscopicity; format: physicochemical; set-up: key to Hygroscopicity: “+/+/+” indicates most favorable; “+/+” indicates more favorable; “+” indicates favorable; “−” indicates unfavorable; “−/−” indicates more unfavorable; “−/−/−” indicates most unfavorable; conditions: for physical form conversion throughout the DVS cycle: DVS cycle 0-95% RH; for hygroscopicity (in words): DVS isotherm; for acquisition of water on exposure to elevated relative humidities: >95% RH
Description: Pharmaceutically acceptable salts of the compound of Formula (I) suitable for pharmaceutical manufacture may also be characterized as non-hygroscopic or slightly hygroscopic, preferably non-hygroscopic. The hygroscopicity may be measured herein by performing a moisture adsorption-desorption isotherm using a dynamic vapor sorption (DVS) analyzer with a starting exposure of 30% relative humidity (RH), increasing humidity up to 95% RH, decreasing humidity to 0%, and finally increasing the humidity back to the starting 30% RH, and classified according to the following: • non-hygroscopic: <0.2%; slightly hygroscopic: ≥0.2% and <2%; hygroscopic: ≥2% and <15%; very hygroscopic: ≥15%; deliquescent: sufficient water is absorbed to form a liquid; all values measured as weight increase (w/w due to acquisition of water) at >95% RH and 25° C.
Dynamic vapor sorption-desorption experiments were carried out using a DVS Resolution instrument supplied by Surface Measurement Systems. Data were acquired using the following acquisition parameters: • Solvent; Water • Start relative humidity; 30% RH • Relative humidity cycle (% RH); 30, 40, 50, 60, 70, 80, 90, 95, 90, 80, 70, 60, 50, 40, 30, 20, 10, 0, 10, 20, 30 • Equilibrium condition (dm/dt); 0.002%/minute • Equilibrium condition window; 10 minutes • Minimum stage period; 5 minutes • Maximum stage period; 360 minutes • Temperature; 25° C. • Carrier gas; Nitrogen • Carrier gas flow rate; 200 mL·min^−1 (Total)
Typically, 20-50 mg of the test substance was mounted in a gauze basket and transferred to the sample port. Excess static electricity was removed throughout sample handling and sample mounting using a ^210Po static eliminator. Instrument performance checks were completed using traceable samples of sodium chloride and lithium chloride. For selected samples, the cycle was repeated using the same sample to assess any change in physical form induced on exposure to elevated relative humidity.

[2] = Salt form assessment (crystallization propensity, DSC/XRPD physical properties, appearance, counter-ion acceptability, salt suitability); format: physicochemical; set-up: key: “+/+/+” indicates most favorable; “+/+” indicates more favorable; “+” indicates favorable; “−” indicates unfavorable; “−/−” indicates more unfavorable; “−/−/−” indicates most unfavorable; conditions: for Physical properties (crystallinity, melt, enthalpy, polymorph tendency): DSC, XRPD; for Crystallization propensity: crystallization from ethanol
Experimental: Samples were analyzed by differential scanning calorimetry (DSC), X-ray powder diffraction (XRPD), and dynamic vapor sorption (DVS). In addition, the appearance and visual properties of each sample were assessed, in addition to propensity for crystallization.
A summary of the data obtained from the analyses of the individual salt forms of Examples 1-9 are presented in Table 10, with advantageous and detrimental properties summarized using the following nomenclature: “+/+/+” indicates most favorable; “+/+” indicates more favorable; “+” indicates favorable; “−” indicates unfavorable; “−/−” indicates more unfavorable; “−/−/−” indicates most unfavorable.

[3] = prolonged storage; cited from earlier work
[4] = oral; cited from earlier work

SMILES	Hygroscopicity ([1]; DVS)	Appearance [2]	Physical properties (crystallinity, melt, enthalpy, polymorph tendency) [2]	Crystallization propensity [2]	behavior at elevated relative humidities ([1]; DVS)	storage sensitivity [3]	water uptake ([1]; DVS, 25° C., on exposure to 95% RH)	physical form conversion throughout the DVS cycle [1]	hygroscopicity (in words) [1]	acquisition of water on exposure to elevated relative humidities ([1]; DVS, 25° C.)	water uptake at relative humidities exceeding 80% ([1]; DVS, >80% RH)	equilibrium water content ([1]; DVS, typical ambient relative humidities)	orally active dose (lowest) [4]	very strong psychedelic doses [4]
CN(C)CCc1c[nH]c2ccccc12 [Example 9, 2-(1H-indol-3-yl)-N,N-dimethylethan-1-amine]	−/−/−	−	−/−	−										
CN(C)CCc1c[nH]c2ccccc12 [Example 6, 2-(1H-indol-3-yl)-N,N-dimethylethan-1-amine]	−/−/−	+/+/+	+/+	−	deliquesce									
CN(C)CCc1c[nH]c2ccccc12 [Example I-1, 2-(1H-indol-3-yl)-N,N-dimethylethan-1-amine]						sensitive to oxygen, heat, and light								
CN(C)CCc1c[nH]c2ccccc12 [Example 5, 2-(1H-indol-3-yl)-N,N-dimethylethan-1-amine]	−	+/+	+/+	+			approximately 3 % w/w							
CN(C)CCc1c[nH]c2ccccc12 [Example 3, 2-(1H-indol-3-yl)-N,N-dimethylethan-1-amine]	+/+/+	+/+/+	+/+/+	+				no evidence of physical form conversion	no significant hygroscopicity	< 0.06 % w/w				
CN(C)CCc1c[nH]c2ccccc12 [Example 7, 2-(1H-indol-3-yl)-N,N-dimethylethan-1-amine]	−/−/−	−	−/−	−				a phase change was induced			excessive	> 3%		
CN(C)CCc1c[nH]c2ccccc12 [Example 8, 2-(1H-indol-3-yl)-N,N-dimethylethan-1-amine]	−/−/−	−	−/−	−	deliquesce									
COc1cc(CCNCc2ccccc2OC)c(OC)cc1Cl [2C—C-NBOMe, 2-(4-Chloro-2,5-dimethoxyphenyl)-N-[(2-methoxyphenyl)methyl]ethan-1-amine]													≥ 25 µg	500 to 700 µg
CN(C)CCc1c[nH]c2ccccc12 [Example 1, 2-(1H-indol-3-yl)-N,N-dimethylethan-1-amine]	+/+/+	+/+/+	+/+/+	+/+/+				no evidence of physical form conversion	no significant hygroscopicity	< 0.2 % w/w				
CN(C)CCc1c[nH]c2ccccc12 [Example 2, 2-(1H-indol-3-yl)-N,N-dimethylethan-1-amine]	+/+/+	+/+/+	+/+/+	+/+/+				no evidence of physical form conversion	no significant hygroscopicity	< 0.05 % w/w				
CN(C)CCc1c[nH]c2ccccc12 [Example 4, 2-(1H-indol-3-yl)-N,N-dimethylethan-1-amine]	+/+/+	+/+/+	+/+/+	−				no evidence of physical form conversion	no significant hygroscopicity	< 0.5 % w/w				
